# Data from US20260097047A1, “Small molecule inhibitors of the ribosome biogenesis factor NVL2” (Board of Regents, The University of Texas System, priority 2023, published 2026).
# Where two headings read alike, the source gives them in different places.
# Test system: HCT116 cells
# Assay: Cell viability assay (CellTiter-Glo, 72 hours) in HCT116 human colorectal cancer cells
# Assay type: cell-based
# Conditions: read-out: Activity
# In short: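 2,000 cells/well adhered overnight, then compound added by digital dispenser with DMSO normalized to 0.5%. Viability read after 72 h at 37 °C by ATP-based CellTiter-Glo luminescence. IC50 from ten-point curves baseline-corrected to vehicle, five-parameter asymmetric least-squares fit.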
# [1] = Homo sapiens, HCT-116, Table 5, HCT116, 72 hours
# [2] = Homo sapiens, HCT-116, Table 6, HCT116, 72 hours
# [3] = Homo sapiens, HCT-116, Table 1, HCT116, 72 hours
# [4] = Homo sapiens, HCT-116, Table 3, HCT116, 72 hours
SMILES,IC50 [1],other results
"CC#CCN1C(=O)c2ccccc2Sc2cc(Nc3cccnc3)ccc21 [10-(But-2-yn-1-yl)-7-(pyridin-3-ylamino)dibenzo[b,f][1,4]thiazepin-11 (10H)-one]",< 500 nM,–
"CC#CCN1C(=O)c2ccccc2Sc2cc(Nc3ccncc3)ccc21 [10-(But-2-yn-1-yl)-7-(pyridin-4-ylamino)dibenzo[b,f][1,4]thiazepin-11 (10H)-one]",< 500 nM,–
"CC#CCN1C(=O)c2ccccc2Sc2cc(Nc3cncnc3)ccc21 [10-(But-2-yn-1-yl)-7-(pyrimidin-5-ylamino)dibenzo[b,f][1,4]thiazepin-11 (10H)-one]",< 500 nM,–
"CC#CCN1C(=O)c2ccc(C#N)cc2Sc2cc(Nc3cccnn3)ccc21 [10-(But-2-yn-1-yl)-11-oxo-7-(pyridazin-3-ylamino)-10,11-dihydrodibenzo[b,f][1,4]thiazepine-3-carbonitrile]",1000 to 5000 nM,–
"CC#CCN1C(=O)c2ccccc2Sc2cc(NC3COCC3C)cnc21 (centres unmarked) [11-(But-2-yn-1-yl)-3-((4-methyltetrahydrofuran-3-yl)amino)benzo[f]pyrido[3,2-b][1,4]thiazepin-10(11H)-one]",–,IC50 [2]: < 500 nM
"CC#CCN1C(=O)c2ccccc2Sc2cc(NC3CCOC3)cnc21 (centres unmarked) [11-(But-2-yn-1-yl)-3-((tetrahydrofuran-3-yl)amino)benzo[f]pyrido[3,2-b][1,4]thiazepin-10(11H)-one]",–,IC50 [2]: < 500 nM
"CCC/C=C/CN1C(=O)c2ccccc2Sc2cc(Nc3cc(C#N)ccn3)ccc21 [(E)-2-((10-(Hex-2-en-1-yl)-11-oxo-10,11-dihydrodibenzo[b,f][1,4]thiazepin-7-yl)amino) isonicotinonitrile]",500 to 1000 nM,–
"CCC/C=C/CN1C(=O)c2ccccc2Sc2cc(Nc3ncccc3C#N)ccc21 [(E)-2-((10-(Hex-2-en-1-yl)-11-oxo-10,11-dihydrodibenzo[b,f][1,4]thiazepin-7-yl)amino) nicotinonitrile]",< 500 nM,–
"CCC/C=C/CN1C(=O)c2ccccc2Sc2cc(Nc3nccnc3C#N)ccc21 [(E)-3-((10-(Hex-2-en-1-yl)-11-oxo-10,11-dihydrodibenzo[b,f][1,4]thiazepin-7-yl)amino) pyrazine-2-carbonitrile]",500 to 1000 nM,–
"CCC/C=C/CN1C(=O)c2ccccc2Sc2cc(Nc3ncc(C)cc3C)ccc21 [(E)-7-((3,5-Dimethylpyridin-2-yl)amino)-10-(hex-2-en-1-yl)dibenzo[b,f][1,4]thiazepin-11 (10H)-one]",< 500 nM,–
"CCC/C=C/CN1C(=O)c2ccccc2Sc2cc(Nc3ncccc3F)ccc21 [(E)-7-((3-Fluoropyridin-2-yl)amino)-10-(hex-2-en-1-yl)dibenzo[b,f][1,4]thiazepin-11 (10H)-one]",< 500 nM,–
"CCC/C=C/CN1C(=O)c2ccccc2Sc2cc(Nc3cc(C4CC4)ccn3)ccc21 [(E)-7-((4-Cyclopropylpyridin-2-yl)amino)-10-(hex-2-en-1-yl)dibenzo[b,f][1,4]thiazepin-11(10H)-one]",500 to 1000 nM,–
"CCC/C=C/CN1C(=O)c2ccccc2Sc2cc(Nc3cc(F)ccn3)ccc21 [(E)-7-((4-Fluoropyridin-2-yl)amino)-10-(hex-2-en-1-yl)dibenzo[b,f][1,4]thiazepin-11(10H)-one]",< 500 nM,–
"CCC/C=C/CN1C(=O)c2ccccc2Sc2cc(Nc3ncccc3C(F)(F)F)ccc21 [(E)-10-(Hex-2-en-1-yl)-7-((3-(trifluoromethyl)pyridin-2-yl)amino)dibenzo[b,f][1,4]thiazepin-11 (10H)-one]",500 to 1000 nM,–
"CCC/C=C/CN1C(=O)c2ccccc2Sc2cc(Nc3nccnc3OC)ccc21 [(E)-10-(Hex-2-en-1-yl)-7-((3-methoxypyrazin-2-yl)amino)dibenzo[b,f][1,4]thiazepin-11 (10H)-one]",500 to 1000 nM,–
"CCC/C=C/CN1C(=O)c2ccccc2Sc2cc(Nc3ncccc3OC)ccc21 [(E)-10-(Hex-2-en-1-yl)-7-((3-methoxypyridin-2-yl)amino)dibenzo[b,f][1,4]thiazepin-11 (10H)-one]",500 to 1000 nM,–
"CCC/C=C/CN1C(=O)c2ccccc2Sc2cc(Nc3nccnc3C)ccc21 [(E)-10-(Hex-2-en-1-yl)-7-((3-methylpyrazin-2-yl)amino)dibenzo[b,f][1,4]thiazepin-11 (10H)-one]",< 500 nM,–
"CCC/C=C/CN1C(=O)c2ccccc2Sc2cc(Nc3ncccc3C)ccc21 [(E)-10-(Hex-2-en-1-yl)-7-((3-methylpyridin-2-yl)amino)dibenzo[b,f][1,4]thiazepin-11 (10H)-one]",< 500 nM,–
"CCC/C=C/CN1C(=O)c2ccccc2Sc2cc(Nc3cc(C(C)C)ccn3)ccc21 [(E)-10-(Hex-2-en-1-yl)-7-((4-isopropylpyridin-2-yl)amino)dibenzo[b,f][1,4]thiazepin-11 (10H)-one]",< 500 nM,–
"CCC/C=C/CN1C(=O)c2ccccc2Sc2cc(Nc3cc(OC)ccn3)ccc21 [(E)-10-(Hex-2-en-1-yl)-7-((4-methoxypyridin-2-yl)amino)dibenzo[b,f][1,4]thiazepin-11 (10H)-one]",< 500 nM,–
"CCC/C=C/CN1C(=O)c2ccccc2Sc2cc(Nc3cc(C)ccn3)ccc21 [(E)-10-(Hex-2-en-1-yl)-7-((4-methylpyridin-2-yl)amino)dibenzo[b,f][1,4]thiazepin-11 (10H)-one]",500 to 1000 nM,–

SMILES,IC50 [1],other results
"CCC/C=C/CN1C(=O)c2ccccc2Sc2cc(Nc3nccc4ccccc34)ccc21 [(E)-10-(Hex-2-en-1-yl)-7-(isoquinolin-1-ylamino)dibenzo[b,f][1,4]thiazepin-11 (10H)-one]",< 500 nM,–
"CCC/C=C/CN1C(=O)c2ccccc2Sc2cc(Nc3cc4ccccc4cn3)ccc21 [(E)-10-(Hex-2-en-1-yl)-7-(isoquinolin-3-ylamino)dibenzo[b,f][1,4]thiazepin-11 (10H)-one]",< 500 nM,–
"CCC/C=C/CN1C(=O)c2ccccc2Sc2cc(Nc3cnccn3)ccc21 [(E)-10-(Hex-2-en-1-yl)-7-(pyrazin-2-ylamino)dibenzo[b,f][1,4]thiazepin-11 (10H)-one]",< 500 nM,–
"CCC/C=C/CN1C(=O)c2ccccc2Sc2cc(Nc3ccccn3)ccc21 [(E)-10-(Hex-2-en-1-yl)-7-(pyridin-2-ylamino)dibenzo[b,f][1,4]thiazepin-11 (10H)-one]",500 to 1000 nM,–
"CCC/C=C/CN1C(=O)c2ccccc2Sc2cc(Nc3ncccn3)ccc21 [(E)-10-(Hex-2-en-1-yl)-7-(pyrimidin-2-ylamino)dibenzo[b,f][1,4]thiazepin-11 (10H)-one]",1000 to 5000 nM,–
"CCC/C=C/CN1C(=O)c2ccccc2Sc2cc(Nc3cc(C(F)(F)F)ccn3)ccc21 [(I)-10-(Hex-2-en-1-yl)-7-((4-(trifluoromethyl)pyridin-2-yl)amino)dibenzo[b,f][1,4]thiazepin-11 (10H)-one]",–,"IC50 (Table 5, HCT116, 72 hours): 1000 to 5000 nM"
CCCCCCN1C(=O)c2ccccc2Sc2cc(NC(=O)c3ccoc3)ccc21 [-nHexyl; furan-3-yl; CH/CH; S],–,"IC50 (Table 7, cell viability assay, CellTiter-Glo, 72 hours, scaffold drawing 42 with R^2, R^3, X/Y, Z): < 500 nM"
"CC#CCN1C(=O)c2ccccc2Sc2cc(Nc3ncccc3C(=O)OC)ccc21 [Methyl 2-((10-(but-2-yn-1-yl)-11-oxo-10,11-dihydrodibenzo[b,f][1,4]thiazepin-7-yl)amino) nicotinate]",–,"IC50 (Table 5, HCT116, 72 hours): 1000 to 5000 nM"
"CC#CCN1C(=O)c2ccccc2C(C)c2cc(NC(=O)c3ccc4oc(=O)n(C)c4c3)ccc21 (centres unmarked) [N-(5-(But-2-yn-1-yl)-11-methyl-6-oxo-6,11-dihydro-5H-dibenzo[b,e]azepin-2-yl)-3-methyl-2-oxo-2,3-dihydrobenzo[d]oxazole-5-carboxamide]",–,"IC50 (Homo sapiens, HCT-116, Table 9, HCT116, 72 hours): < 500 nM"
"C#CCOCCN1C(=O)c2ccccc2Sc2cc(NC(=O)N3CCC3)ccc21 [N-(11-Oxo-10-(2-(prop-2-yn-1-yloxy)ethyl)-10,11-dihydrodibenzo[b,f][1,4]thiazepin-7-yl) azetidine-1-carboxamide]",–,IC50 [3]: < 500 nM
"CC#CCN1C(=O)c2ccccc2Sc2cc(NC(=O)N3CCC3)ccc21 [Table 1: —CH2CCMe; azetidin-1-yl; CH; CH, N-(10-(But-2-yn-1-yl)-11-oxo-10,11-dihydrodibenzo[b,f][1,4]thiazepin-7-yl) azetidine-1-carboxamide]",–,IC50 [3]: < 500 nM
CC#CCN1C(=O)c2ccccc2Sc2cc(NC(=O)N3CCC3)cnc21 [Table 1: —CH2CCMe; azetidin-1-yl; CH; N],–,"IC50 (Table 1, HCT116, 72 hours): < 500 nM"
CC#CCN1C(=O)c2ccccc2Sc2cc(NC(=O)N3CCCCC3)cnc21 [Table 1: —CH2CCMe; piperidin-1-yl; CH; N],–,"IC50 (Table 1, HCT116, 72 hours): < 500 nM"
CC#CCN1C(=O)c2ccccc2Sc2cc(NC(=S)N3CCC3)ccc21 [Table 2: —CH2CCMe; azetidin-1-yl; CH; CH],–,"IC50 (Table 2, HCT116, 72 hours): < 500 nM"
CC#CCN1C(=O)c2ccccc2Sc2cc(NC(=S)N3CCC3)cnc21 [Table 2: —CH2CCMe; azetidin-1-yl; CH; N],–,"IC50 (Table 2, HCT116, 72 hours): < 500 nM"
CC#CCN1C(=O)c2ccccc2Sc2cc(NC(=S)N3CCCCC3)cnc21 [Table 2: —CH2CCMe; piperidin-1-yl; CH; N],–,"IC50 (Table 2, HCT116, 72 hours): < 500 nM"
"C#CCOCCN1C(=O)c2ccccc2Sc2cc(NC(=O)Nc3ccccc3)ccc21 [Table 3: —(CH2)2OCH2CCH; Ph; CH/CH, 1-(11-Oxo-10-(2-(prop-2-yn-1-yloxy)ethyl)-10,11-dihydrodibenzo[b,f][1,4]thiazepin-7-yl)-3-phenylurea]",–,IC50 [4]: < 500 nM
"C#CCOCCN1C(=O)c2ccccc2Sc2cc(NC(=O)NC3CCCCC3)ccc21 [Table 3: —(CH2)2OCH2CCH; cHex; CH/CH, 1-Cyclohexyl-3-(11-oxo-10-(2-(prop-2-yn-1-yloxy)ethyl)-10,11-dihydrodibenzo[b,f][1,4]thiazepin-7-yl) urea]",–,IC50 [4]: < 500 nM
CC#CCN1C(=O)c2ccccc2Sc2cc(NC(=O)Nc3cccc(OCF)c3)ccc21 [Table 3: —CH2CCMe; 3-FH2COPh; CH/CH],–,"IC50 (Table 3, HCT116, 72 hours): < 500 nM"
CC#CCN1C(=O)c2ccccc2Sc2cc(NC(=O)NC3CC(COC)C3)ccc21 (centres unmarked) [Table 3: —CH2CCMe; 3-MeOCH2-cBu; CH/CH],–,"IC50 (Table 3, HCT116, 72 hours): < 500 nM"
